Our source for the IC50 and Ki values is ChEMBL document CHEMBL1909046, “DrugMatrix in vitro pharmacology data”.

Assay [1] in a line: DRUGMATRIX: Leukotriene, BLT (LTB4) radioligand binding (ligand: [3H]LTB4). It is filed as cell membranes, Membrane. The conditions noted are these: u-937; Not Active = under 50% inhibition at 10 µM.
Assay [2] can be described thus: DRUGMATRIX: GABAA, Flunitrazepam, Central radioligand binding (ligand: [3H] Flunitrazepam). It is filed as cell membranes, Rattus norvegicus, Wistar, Brain, Membrane. The conditions noted are these: Not Active = under 50% inhibition at 10 µM.
The nature of assay [3]: DRUGMATRIX: Imidazoline I2, Central radioligand binding (ligand: [3H] Idazoxan). In kind it is cell membranes, Rattus norvegicus, Wistar, Cerebral cortex, Membrane. The conditions noted are these: Not Active = under 50% inhibition at 10 µM.
A further assay has as its target T1, Adenosine receptor A3 (Homo sapiens, UniProt P0DMS8).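 Further: radioligand binding assay with AB-MECA serving as the labeled ligand; in other assays of this panel Not Active means under 50% inhibition at 10 µM.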
T1 sequence (P0DMS8 whole entry): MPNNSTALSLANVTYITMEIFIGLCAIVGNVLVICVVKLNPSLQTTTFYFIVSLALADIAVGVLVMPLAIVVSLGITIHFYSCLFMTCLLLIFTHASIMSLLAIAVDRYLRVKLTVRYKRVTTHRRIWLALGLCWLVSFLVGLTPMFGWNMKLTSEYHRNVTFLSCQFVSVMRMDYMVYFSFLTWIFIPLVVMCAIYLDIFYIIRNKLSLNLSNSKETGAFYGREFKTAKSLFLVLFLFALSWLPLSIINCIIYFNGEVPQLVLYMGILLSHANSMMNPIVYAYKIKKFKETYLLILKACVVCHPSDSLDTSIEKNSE
In kind it is cell membranes, CHO-K1, Membrane. As to conditions: cho-k1.

For assay [4], the target named is C-C chemokine receptor type 2 (Homo sapiens, UniProt P41597). It is filed as cell membranes, Membrane. The conditions noted are these: cho-k1. Further: in other assays of this panel Not Active means under 50% inhibition at 10 µM.
The target of assay [5] is C-C chemokine receptor type 5 (Homo sapiens, UniProt P51681). It is filed as cell membranes, Membrane. The conditions noted are these: hek293. Further: in other assays of this panel Not Active means under 50% inhibition at 10 µM.
Assay [6] has as its target Beta-2 adrenergic receptor (Homo sapiens, UniProt P07550). Briefly: DRUGMATRIX: Adrenergic beta2 radioligand binding (ligand: [3H] CGP-12177). It is filed as cell membranes, CHO, Membrane. The conditions noted are these: cho; Not Active = under 50% inhibition at 10 µM.

Chain of C-C chemokine receptor type 5 (P51681 whole entry): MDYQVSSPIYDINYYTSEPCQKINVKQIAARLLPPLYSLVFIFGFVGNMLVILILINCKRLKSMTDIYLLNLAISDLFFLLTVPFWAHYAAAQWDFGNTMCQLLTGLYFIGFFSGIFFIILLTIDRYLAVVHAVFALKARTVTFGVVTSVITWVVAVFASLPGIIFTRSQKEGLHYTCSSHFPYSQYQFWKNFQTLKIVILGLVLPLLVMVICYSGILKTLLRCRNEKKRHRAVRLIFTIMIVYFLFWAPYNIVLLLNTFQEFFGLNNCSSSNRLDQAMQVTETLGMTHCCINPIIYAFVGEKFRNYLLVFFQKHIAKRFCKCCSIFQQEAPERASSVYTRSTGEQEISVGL
Chain of C-C chemokine receptor type 2 (P41597 whole entry): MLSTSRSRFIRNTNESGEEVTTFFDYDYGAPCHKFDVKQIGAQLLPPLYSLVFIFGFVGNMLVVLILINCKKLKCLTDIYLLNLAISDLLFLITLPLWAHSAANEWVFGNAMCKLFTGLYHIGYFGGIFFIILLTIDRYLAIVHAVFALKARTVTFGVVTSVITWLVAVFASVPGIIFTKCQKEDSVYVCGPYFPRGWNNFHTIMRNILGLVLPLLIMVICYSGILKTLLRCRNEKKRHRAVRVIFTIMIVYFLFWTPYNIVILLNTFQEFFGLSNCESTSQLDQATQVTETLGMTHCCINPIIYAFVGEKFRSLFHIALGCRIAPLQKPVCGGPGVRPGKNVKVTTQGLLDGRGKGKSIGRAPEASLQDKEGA
Chain of Beta-2 adrenergic receptor (P07550 whole entry): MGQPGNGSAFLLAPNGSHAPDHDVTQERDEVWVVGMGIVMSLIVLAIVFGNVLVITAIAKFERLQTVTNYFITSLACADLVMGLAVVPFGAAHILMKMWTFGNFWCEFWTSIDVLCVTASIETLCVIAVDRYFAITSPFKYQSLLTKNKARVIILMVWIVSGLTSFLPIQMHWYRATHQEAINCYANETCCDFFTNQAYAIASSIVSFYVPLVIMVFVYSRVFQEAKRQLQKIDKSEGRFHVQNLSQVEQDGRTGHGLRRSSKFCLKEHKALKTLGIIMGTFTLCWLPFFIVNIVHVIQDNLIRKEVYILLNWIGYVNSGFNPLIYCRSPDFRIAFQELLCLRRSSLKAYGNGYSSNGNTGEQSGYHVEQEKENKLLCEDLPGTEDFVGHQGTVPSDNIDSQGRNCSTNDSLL

By IC50 is commonly meant the concentration needed to halve the response being measured. The term Ki denotes the dissociation constant of the complex between target and ligand, obtained from inhibition or displacement. As to `C[C@H]1C[C@@H]2[C@H]([C@@H](O)C[C@@]3(C)[C@H]2CC[C@]3(O)C(=O)CO)[C@@]2(C)C=CC(=O)C=C12` [METHYLPREDNISOLONE], the IC50 entry (in assay [1]; in assay [2]; in assay [3]; on Adenosine receptor A3; in assay [4]; in assay [5]) was “Not Active” in each case. The IC50 result in assay [6] was “Not Active”. Moreover, the Ki result in assay [1], in assay [2] and in assay [3] was “Not Active” each time.
As for `COc1cc2nc(N3CCN(C(=O)C4CCCO4)CC3)nc(N)c2cc1OC` (stereo not given) [TERAZOSIN], the IC50 result in assay [1] is “Not Active”; in assay [2] it was “Not Active”; in assay [3] (read-out: IC50) it was 1.27 µM; at Adenosine receptor A3, “Not Active”; in assay [4] it was “Not Active”; in assay [5] it was “Not Active”. Further, the half-maximal inhibitory concentration (IC50) result in assay [6] is “Not Active”. Moreover, the values for the Ki result in assay [1], in assay [2] and in assay [3] (read-out: Ki) were “Not Active”, “Not Active” and 0.846 µM, respectively.
As to `CC(c1cc2ccccc2s1)N(O)C(N)=O` (stereo not given) [ZILEUTON], the IC50 result (in assay [1]; in assay [2]; in assay [3]; against Adenosine receptor A3; in assay [4]; in assay [5]) was “Not Active” throughout. Besides, the IC50 result in assay [6] is “Not Active”. In addition, the Ki entry in assay [1], in assay [2] and in assay [3] was “Not Active” each time.
For `O=C1C(CC[S+]([O-])c2ccccc2)C(=O)N(c2ccccc2)N1c1ccccc1` (stereo not given) [SULFINPYRAZONE], the IC50 result (in assay [1]; in assay [2]; in assay [3]; against Adenosine receptor A3; in assay [4]; in assay [5]) was “Not Active” throughout. Further, in assay [6], the IC50 entry is on record as “Not Active”. Also, the Ki result in assay [1], in assay [2] and in assay [3] was “Not Active” each time.
For the compound `CCN1CCC[C@H]1CNC(=O)c1cc(S(N)(=O)=O)ccc1OC` [LEVOSULPIRIDE], the IC50 entry (in assay [1]; in assay [2]; in assay [3]; at Adenosine receptor A3; in assay [4]; in assay [5]) was “Not Active” throughout. Moreover, the IC50 entry in assay [6] is listed as “Not Active”. Moreover, the Ki result in assay [1], in assay [2] and in assay [3] was “Not Active” each time.
In the case of `CCN(CC)CCNC(=O)c1cc(S(C)(=O)=O)ccc1OC` [TIAPRIDE], the IC50 entry (in assay [1]; in assay [2]; in assay [3]; on Adenosine receptor A3; in assay [4]; in assay [5]) was “Not Active” throughout. Besides, the IC50 result in assay [6] is on record as “Not Active”. Further, the Ki entry in assay [1], in assay [2] and in assay [3] was “Not Active” in each case.
Turning to `CCCCOc1cc(CC2CNC(=O)N2)ccc1OC` (stereo not given) [RO-201724], the IC50 entry (in assay [1]; in assay [2]; in assay [3]; at Adenosine receptor A3; in assay [4]; in assay [5]) was “Not Active” in each case. Besides, the IC50 result in assay [6] was “Not Active”. In addition, the Ki entry in assay [1], in assay [2] and in assay [3] was “Not Active” each time.
